According to patent publication US9221798B2, “4-substituted-(3-substituted-1H-pyrazole-5-amino)-pyrimidine derivatives having activity of inhibiting protein kinase and use thereof” (Zhejian Hisun Pharmaceutical Co., Ltd., priority 2011, dated 2015):

Experiments:
[1] = molecular target: T1, Aurora A kinase (Homo sapiens, UniProt O14965); assay: Assay for the inhibiting activity of kinase (Glo Plus / ADP Glo / Caliper), Aurora A; type: biochemical; conditions: kinase inhibition, incubated at 30° C. for 1 hour
T1 sequence (O14965 1-403): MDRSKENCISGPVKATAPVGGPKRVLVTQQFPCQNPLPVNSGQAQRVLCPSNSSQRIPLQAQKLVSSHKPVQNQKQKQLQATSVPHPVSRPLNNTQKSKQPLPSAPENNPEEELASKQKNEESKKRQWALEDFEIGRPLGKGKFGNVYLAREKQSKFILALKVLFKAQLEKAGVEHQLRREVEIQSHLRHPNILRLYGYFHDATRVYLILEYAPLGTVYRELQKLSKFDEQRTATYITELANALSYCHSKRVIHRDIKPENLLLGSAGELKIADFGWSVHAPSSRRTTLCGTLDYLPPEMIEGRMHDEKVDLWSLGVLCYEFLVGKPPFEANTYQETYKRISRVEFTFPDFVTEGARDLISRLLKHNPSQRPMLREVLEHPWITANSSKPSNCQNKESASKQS
Procedure: (§1) Experimental Reagents: a buffer solution of 25 mM HEPES, 10 mM MgCl2, 0.01% Triton X-100, 100 μg/mL BSA, 2.5 mM DTT, pH=7.4; ATP was available from U.S. Sigma (cat. A7699); Glo Plus Kinase Reagent was available from U.S. Promega (cat. V3773); ADP Glo Reagent was available from U.S. Promega (cat. V9102).
(§2) Procedures of the detection experiment for Glo Plus and ADP Glo kinases: the kinase(s), substrate, ATP and the compound(s) to be tested were mixed on a 384-well culture plate, with a total volume of 10 μL of the mixture, […], and then the culture plate was incubated at 30° C. for 1 hour. Test for Glo Plus kinase activity: add 10 μL of Glo Plus kinase per well to the mixture and then incubate at 27° C. for 20 minutes. Test for ADP Glo kinase activity: add 10 μL of ADP Glo per well to the culture plate, and then incubate at 27° C. for 40 minutes. Then a kinase detection reagent (10 μL per well) was added to the culture plate which was incubated at 27° C. for 30 minutes. Read the values from the plate reader to determine inhibition data.
(§3) Biologic testing procedures of Caliper kinase: the kinase, substrate, ATP and the compound to be tested were mixed in a 96-well culture plate, with a total volume of 50 μL of the mixture, and then the culture plate was incubated at 30° C. for 1 hour. Add 20 μL of 35 mM EDTA to the culture plate. A solution of 26 μL of the reaction mixture was transferred to a 384-well culture plate, and read the values on a plate reader to determine inhibition data.

[2] = molecular target: Raf-1 kinase (Homo sapiens, UniProt P04049); assay: Assay for the inhibiting activity of kinase (Glo Plus / ADP Glo / Caliper), Raf-1; type: biochemical; conditions: kinase inhibition, incubated at 30° C. for 1 hour
Raf-1 kinase, sequence (P04049 whole entry): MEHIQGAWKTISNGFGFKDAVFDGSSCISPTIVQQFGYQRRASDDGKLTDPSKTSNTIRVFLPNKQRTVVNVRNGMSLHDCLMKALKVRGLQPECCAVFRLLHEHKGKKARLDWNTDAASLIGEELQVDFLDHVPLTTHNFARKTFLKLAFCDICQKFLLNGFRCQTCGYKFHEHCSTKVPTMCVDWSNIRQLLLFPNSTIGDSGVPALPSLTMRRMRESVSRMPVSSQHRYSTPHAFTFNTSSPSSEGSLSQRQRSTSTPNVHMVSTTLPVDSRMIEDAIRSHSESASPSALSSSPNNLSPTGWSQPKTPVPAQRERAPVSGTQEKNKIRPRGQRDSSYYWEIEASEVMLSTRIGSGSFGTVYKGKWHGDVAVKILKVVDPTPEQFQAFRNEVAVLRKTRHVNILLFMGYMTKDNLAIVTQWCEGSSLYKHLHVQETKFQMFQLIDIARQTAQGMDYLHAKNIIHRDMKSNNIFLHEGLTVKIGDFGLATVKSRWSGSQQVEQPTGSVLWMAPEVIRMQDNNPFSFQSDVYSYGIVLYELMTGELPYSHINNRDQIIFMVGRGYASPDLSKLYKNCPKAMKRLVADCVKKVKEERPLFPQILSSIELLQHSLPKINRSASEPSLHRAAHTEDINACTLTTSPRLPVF
Procedure: as §1, §2, §3

[3] = tested on: HepG2; assay: Test for activity of inhibiting tumor cells (CellTiter-Glo cell viability), HepG2; type: cell-based; conditions: Homo sapiens, half growth inhibition concentration, 72 hours incubation
Excerpt: (§4) Reagents and consumables: 1. Tumor cells were available from HD Biosciences (Shanghai) Co., Ltd. and detected mycoplasma-free; 2. RPMI 1640 Culture Medium, available from U.S. Invitrogen, Code No.: 31800-022; 3. F12K Culture Medium, available from U.S. Invitrogen, Code No.: 21127-022; 4. DMEM Culture Medium, available from U.S. Invitrogen, Code No.: 12100-046; 5. Fetal bovine serum, available from U.S. Hyclone, Code No.: CH30160.03; 6. Penicillin-Streptomycin liquid, available from U.S. Invitrogen, Code No.: 15140-122; 7. Gemcitabine, available from U.K. Tocris, Code No.: 3259; 8. DMSO, available from U.S. Sigma, Code No.: D4540; 9. 96-well cell culture plate, available from U.S. Corning, Code No.: 3610; 10. CellTiter-Glo Luminescent Cell Viability Assay, available from U.S. Promega, Code No.: G7571; 11. Plate Reader, available from U.S. Perkin Elmer, EnVision Multilabel Plate Reader.
(§5) The cell culture mediums: 1. RPMI 1640 whole cell culture medium: a RPMI 1640 culture medium containing 10% fetal bovine serum and 100 U penicillin and 100 μg/mL streptomycin. 2. F12K whole cell culture medium: a F12K culture medium containing 10% fetal bovine serum and 100 U penicillin and 100 μg/mL streptomycin. 3. DMEM whole cell culture medium: a DMEM culture medium containing 10% fetal bovine serum and 100 U penicillin and 100 μg/mL streptomycin.
Preparation of the compounds: 1. A test compound was formulated into a mother liquor in a concentration of 30 mM, and the mother liquor was divided into aliquots and stored in a refrigerator at −80° C. 2. The mother liquors of the test compounds in a concentration of 30 mM were diluted with DMSO to a series of solutions in gradient concentrations, wherein these gradient concentrations included 25 mM, 5 mM, 1 mM, 200 μM, 40 μM, 8 μM, 1.6 μM, 0.32 μM. […]
(§6) Procedures: 1. […] The cell plate was placed into the plate reader for analysis. Set to read chemiluminescence and record the data.
(§7) Data Process: The data read in each well were required to be converted into cell viability. The cell viability could be calculated by using formulae. […]

[4] = tested on: K562; assay: Test for activity of inhibiting tumor cells (CellTiter-Glo cell viability), K562; type: cell-based; conditions: Homo sapiens, half growth inhibition concentration, 72 hours incubation
Excerpt: as §4, §5
Preparation of the compounds: 1. A test compound was formulated into a mother liquor in a concentration of 30 mM, and the mother liquor was divided into aliquots and stored in a refrigerator at −80° C. 2. The mother liquors of the test compounds in a concentration of 30 mM were diluted with DMSO to a series of solutions in gradient concentrations, wherein these gradient concentrations included 25 mM, 5 mM, 1 mM, 200 μM, 40 μM, 8 μM, 1.6 μM, 0.32 μM. Then the formulated solutions in gradient concentrations were diluted five times with the whole cell culture mediums, and then the gradient concentrations of the test compounds included 5 mM, 1 mM, 200 μM, 40 μM, 8 μM, 1.6 μM, 0.32 μM, 0.064 μM dissolved in 20% DMSO. 3. Only before the experiments began, the prepared solutions of the test compounds in series of gradient concentrations were diluted one hundred times with the whole cell culture mediums under sterile conditions, wherein these gradient concentrations of the test compounds included 50 μM, 10 μM, 2 μM, 0.4 μM, 0.08 μM, 16 nM, 3.2 nM, 0.64 nM; which were 2× the compound solutions and they could be used to treat the cells. 4. […]
as §6, §7

[5] = tested on: A549; assay: Test for activity of inhibiting tumor cells (CellTiter-Glo cell viability), A549; type: cell-based; conditions: Homo sapiens, half growth inhibition concentration, 72 hours incubation
Excerpt: as §4
The cell culture mediums: 1. RPMI 1640 whole cell culture medium: a RPMI 1640 culture medium containing 10% fetal bovine serum and 100 U penicillin and 100 μg/mL streptomycin. 2. […]
as §6, §7

| SMILES | IC50 [1] [µM] | IC50 [2] [µM] | EC50 [3] [µM] | EC50 [4] [µM] | EC50 [5] [µM] |
| --- | --- | --- | --- | --- | --- |
| Cc1cc(Nc2nc(Nc3cc(NC(=O)Nc4ccc(Cl)c(C(F)(F)F)c4)ccc3C)ncc2F)n[nH]1 [Compound 2, 1-(4-chloro-3-trifluoromethyl-phenyl)-3-{3-[5-fluoro-4-(5-methyl-1H-pyrazol-3-yl-amino)-pyrimidin-2-yl-amino]-4-methyl-phenyl}-urea] | 0.78 | 0.38 | 3.82 | 4 | – |
| COc1cnc(Nc2cc(NC(=O)Nc3ccc(Cl)c(C(F)(F)F)c3)ccc2C)nc1Nc1cc(C)[nH]n1 [Compound 9, 1-(4-chloro-3-trifluoromethyl-phenyl)-3-{3-[5-methoxy-4-(5-methyl-1H-pyrazol-3-yl-amino)-pyrimidin-2-yl-amino]-4-methyl-phenyl}-urea] | 0.34 | 0.24 | 17.7 | 4.8 | 13.3 |
| Cc1cc(Nc2nc(Nc3cc(NC(=O)Nc4ccc(Cl)c(C(F)(F)F)c4)ccc3C)ncc2C(F)(F)F)n[nH]1 [Compound 3, 1-(4-chloro-3-trifluoromethyl-phenyl)-3-{4-methyl-3-[4-(5-methyl-1H-pyrazol-3-yl-amino)-5-trifluoromethyl-pyrimidin-2-yl-amino]-phenyl}-urea] | – | 1.53 | – | – | – |
| Cc1cc(Nc2nc(Nc3cc(NC(=O)Nc4ccc(Cl)c(C(F)(F)F)c4)ccc3C)ncc2N)n[nH]1 [Compound 8, 1-(4-chloro-3-trifluoromethyl-phenyl)-3-{4-methyl-3-[5-methyl-4-(5-methyl-1H-pyrazol-3-yl-amino)-5-amino-pyrimidin-2-yl-amino]-phenyl}-urea] | 2.1 | 0.41 | – | 11.9 | – |
| Cc1cc(Nc2nc(Nc3cc(NC(=O)Nc4ccc(Cl)c(C(F)(F)F)c4)ccc3C)ncc2O)n[nH]1 [Compound 11, 1-(4-chloro-3-trifluoromethyl-phenyl)-3-{3-[5-hydroxy-4-(5-methyl-1H-pyrazol-3-yl-amino)-pyrimidin-2-yl-amino]-4-methyl-phenyl}-urea] | – | 2.14 | – | – | – |
| Cc1cc(Nc2ccnc(Nc3cc(NC(=O)Nc4ccc(Cl)c(C(F)(F)F)c4)ccc3C)n2)n[nH]1 [Compound 4, 1-(4-chloro-3-trifluoromethyl-phenyl)-3-{4-methyl-3-[4-(5-methyl-1H-pyrazol-3-yl-amino)-pyrimidin-2-yl-amino]-phenyl}-urea] | 2.68 | – | – | – | – |
| Cc1cc(Nc2nc(Nc3cc(NC(=O)Nc4ccc(Cl)c(C(F)(F)F)c4)ccc3C)ncc2C)n[nH]1 [Compound 6, 1-(4-chloro-3-trifluoromethyl-phenyl)-3-{4-methyl-3-[5-methyl-4-(5-methyl-1H-pyrazol-3-yl-amino)-pyrimidin-2-yl-amino]-phenyl}-urea] | 0.14 | 0.25 | 6.98 | 4.87 | – |
